The text below walks through data of paper PMC11456916, “A screen for cell envelope stress uncovers an inhibitor of prolipoprotein diacylglyceryl transferase, Lgt, in Escherichiacoli” (iScience, 2024).

Test [1] relates to E. coli ΔtolC. Nature of the test: MIC assay, E. coli ΔtolC. As to conditions: growth inhibition, in words. It is filed as cell-based. As for the experimental part:
(§1) For MIC assays, cultures of bacteria were grown in LB broth. Overnight cultures were diluted (1:100) into fresh LB media and grown to the mid-log phase of growth (OD600 ∼0.5). Subcultures were then normalized to an OD600 of 0.1, and diluted (1:5000) into assay media. Assay plates were then incubated for 18 h at 37°C, then OD600 was measured using a Biotek Neo plate reader.

Test [2] relates to E. coli ΔtolC-pore harboring the lgt expression plasmid pCHAP9231. Nature of the test: Ectopic lgt expression MIC (high-copy suppression, pCHAP9231). It is filed as cell-based. As to conditions: pCHAP9231, 0.4% arabinose, LB.
Test [3] deals with K. pneumoniae MKP103. Nature of the test: MIC assay with or without SPR741, K. pneumoniae. It is filed as cell-based, Klebsiella pneumoniae. As to conditions: for MIC: Klebsiella pneumoniae. As for the experimental part: (§2) We next sought to determine whether we could achieve growth inhibition of wild-type E. coli using MAC-0452936 and an antibiotic adjuvant. […] To that end, we determined the MIC of MAC-0452936 against wild-type E. coli in the presence and absence of a sub-MIC concentration of SPR741 (Figure S8B). […] We leveraged this combination to characterize the spectrum of activity of MAC-0452936 against a panel of Gram-negative pathogens (Table 2). In the presence of 8 μg/mL SPR741, we observed MAC-0452936 activity against the clinical E. coli isolates C0244 and CFT073 at 2 μg/mL as well as against Salmonella Typhimurium SL1344 at 4 μg/mL.
as §1

Test [4] relates to E. coli ΔtolC-pore Δlpp. Put plainly: MIC in lpp deletion background. Format: cell-based. Particulars: E. coli ΔtolC-pore Δlpp versus E. coli ΔtolC-pore. The source says: We next turned to genetic approaches to confirm the mechanism of action of MAC-0452936. […] To that end, we screened the E. coli CRISPRi collection in the ΔtolC-pore genetic background with a sub-inhibitory concentration of MAC-0452936 and measured the fitness of all 356 CRISPRi mutants (Figure 4C and Data S4). […] Depletion of Lgt by CRISPRi provided supporting evidence that MAC-0452936 targeted Lgt in E. coli; however, we sought to confirm this observation using a parallel genetic approach. We hypothesized that MAC-0452936 potency would also be affected by high-copy expression of lgt. To that end, we introduced either an arabinose inducible copy of lgt supplied on the pCHAP9231 plasmid[48] or the pBAD19s plasmid as a control into E. coli ΔtolC-pore and tested the potency of MAC-0452936 (Figure 4E). Induction of lgt expression with arabinose suppressed the activity of MAC-0452936 by about 8-fold. […] To test this hypothesis, we constructed E. coli ΔlgtΔtolC-pore with pCHAP9231[48] so that lgt expression was driven solely by arabinose from the plasmid. […] To test this observation with MAC-0452936, we introduced an lpp deletion into our screening strain E. coli ΔtolC-pore and assessed the activity of our Lgt inhibitor in this mutant background. […]

Test [5] has as its system E. coli ΔtolC-pore harboring pPromrcsA-GFP-mobile. Nature of the test: Secondary screen of bioactive small molecules for rcsA bioreporter induction (agar diffusion). As to conditions: 100 nL of 10 mM stock spotted on MOPS minimal agar, visual analysis. It is filed as cell-based. The source says:
To identify small molecules that act on the Gram-negative cell envelope, a set of 797 bioactive compounds that were previously identified to be antibacterial against efflux-deficient hyper-permeable E. coli (E. coli ΔtolC-pore) was screened to determine those that can induce the rcsA bioreporter on MOPS minimal medium. E. coli ΔtolC-pore is deficient in TolC-mediated drug efflux and expresses an outer-membrane pore encoded by fhuA,[46]^,[47] thereby allowing the capture of additional antibacterial chemical scaffolds that would normally be subject to efflux or are unable to traverse the E. coli outer membrane. As the compounds in the bioactive compound collection were all antibacterial at varying inhibitory concentrations, we conducted this secondary screen using a modified solid agar diffusion assay. This enabled testing of these antibacterial small molecules at a range of concentrations, which is often required to assess bioreporter induction. To that end, 100 nL aliquots of compounds from screening library plates were deposited onto discrete positions on MOPS agar impregnated with E. coli ΔtolC-pore harboring the reporter (Figure 3A). Compounds that induced reporter expression were determined through visual analysis of the screening plates following overnight growth by looking for signature green “halos” proximal to the zones of inhibition (Figure S4). […]

In test [6] the test system is A. baumannii ATCC17978. Nature of the test: MIC assay with or without SPR741, A. baumannii. It is filed as cell-based, Acinetobacter baumannii. As to conditions: for MIC: Acinetobacter baumannii. How it is done:
as §2, §1

For test [7], the system named is S. aureus MRSA JE2. Nature of the test: MIC assay with or without SPR741, S. aureus. Format: cell-based, Staphylococcus aureus. As to conditions: for MIC: Staphylococcus aureus, MRSA. As for the experimental part:
as §2, §1

Test [8] relates to E. coli BW25113. Put plainly: MIC assay, wild-type E. coli with or without SPR741. Format: cell-based. How it is done: as §2, §1
Test [9] relates to E. coli CFT073. Nature of the test: MIC assay with or without SPR741, E. coli CFT073. It is filed as cell-based. Particulars: Escherichia coli. How it is done:
as §2, §1

Read-outs that look alike come from different tables or passages of the source.

As to `COc1ccc(C(=O)O/N=C(\c2cccs2)C(C)(C)C)cc1` [MAC-0452936, (Z)-2-Pivaloylthiophene O-(4-methoxybenzoyl) oxime], the “activity against E. coli ΔtolC” value in test [1] is listed as “active”. Moreover, the “suppression of activity by induction of lgt expression with arabinose” value in [2] was “about 8 fold”. For the same molecule, in test [3] (8 μg/mL SPR741), the “MIC, K. pneumoniae MKP103 + 8 μg/mL SPR741” value is “did not observe MAC-0452936 activity”. Further, the MIC was above 64 µg/mL in test [3] (MKP103, read-out: MIC, K. pneumoniae MKP103 + 0 μg/mL SPR741); above 64 µg/mL in [3] (MKP103, read-out: MIC, K. pneumoniae MKP103 + 8 μg/mL SPR741); above 64 µg/mL in test [6] (ATCC17978, read-out: MIC, A. baumannii ATCC17978 + 8 μg/mL SPR741); above 64 µg/mL in [6] (ATCC17978, read-out: MIC, A. baumannii ATCC17978 + 0 μg/mL SPR741); above 64 µg/mL in test [7] (read-out: MIC, S. aureus MRSA JE2 + 0 μg/mL SPR741); above 64 µg/mL in test [7] (read-out: MIC, S. aureus MRSA JE2 + 8 μg/mL SPR741). Moreover, the MIC in test [8] (Escherichia coli, BW25113, read-out: MIC, E. coli BW25113 + 0 μg/mL SPR741) was above 64 µg/mL; in [9] (CFT073, read-out: MIC, E. coli CFT073 + 8 μg/mL SPR741) it was 2 µg/mL; in test [9] (CFT073, read-out: MIC, E. coli CFT073 + 0 μg/mL SPR741) it was above 64 µg/mL. Also, in test [4], the “sensitization by deletion of lpp” value stood at 2 fold. Also, the “rcsA bioreporter (GFP) induction in secondary screen” value in test [5] was “induced pPromrcsA-GFP”. For the same molecule, the “MIC, A. baumannii ATCC17978 + 8 μg/mL SPR741” value in test [6] (8 μg/mL SPR741) is reported as “did not observe MAC-0452936 activity”. The “MIC, S. aureus MRSA JE2 + 8 μg/mL SPR741” value in [7] (8 μg/mL SPR741) is “did not observe MAC-0452936 activity”. For the same molecule, the “activity against wild-type (WT) E. coli” value in test [8] (growth inhibition, no SPR741, in words) is “inactive”.
